Source: ChEMBL document CHEMBL4002643, “Tubulin-binding dibenz[c,e]oxepines: Part 2. Structural variation and biological evaluation as tumour vasculature disrupting agents” (Bioorg Med Chem, 2017)

Legend:
[1] = Inhibition of porcine tubulin assembly measured for 30 mins by UV/visible spectrophotometric method; set-up: species or system Sus scrofa
[2] = tested on: K562; assay: Cytotoxicity against human K562 cells assessed as growth inhibition after 5 days by MTT assay; format: functional, cell-based; conditions: K562, 120 h

Row | SMILES | IC50 [1] [nM] | IC50 [2] [µM]
1 | COc1cc2c(c(OC)c1OC)-c1ccc(N)cc1COC2 | > 10000 | 10
2 | COc1cc2c(c(OC)c1OC)-c1ccc([N+](=O)[O-])cc1COC2 | > 10000 | 16
3 | COc1cc2c(c(OC)c1OC)-c1ccc(OC)c(=O)cc1[C@@H](NC(C)=O)CC2 [COLCHICINE] | 2000 | –
4 | COc1ccc(/C=C\c2cc(OC)c(OC)c(OC)c2)cc1OP(=O)(O)O [FOSBRETABULIN DISODIUM] | 900 | 0.72
